According to US20230114241A1, “METHODS OF TREATING EPILEPSY USING THE SAME” (Trevena, Inc., priority 2019, published 2023):

target: human sphingosine-1-phosphate receptor 1 (S1P1) (Homo sapiens, UniProt P21453); assay: Inhibition of cAMP production (HTRF cAMP HiRange), S1P1 CHO-K1 cells; assay type: cell-based; details: inhibition of cAMP production, S1P1; read-out: hS1P1 CAMP pEC50 (converted)
Protocol: Stable clonal Chinese hamster ovary K1 (CHO-K1) cells co-expressing EA-β-arrestin2 and the human sphingosine-1-phosphate receptor 1 (NM_001400, S1P1) with a C-terminal Prolink™ tag were purchased from DiscoverX corporation (Cat #: 93-0207C2).
Cell lines were cultured in AssayComplete™ Media 6 (DiscoverX Corporation, Cat #: 920018GF2) at 37° C. and 5% CO2 in a humidified CO2 and temperature-controlled incubator. To begin assay plating, cells were washed with Dulbecco's phosphate buffered saline (CellGro, Cat #: 21-031-CV) and lifted from the culturing flask by incubation (37° C., 5 min) with CellStripper (Cellgro, Cat #: 25-056-CI). […] Plated cells were incubated overnight at 37° C. and 5% CO2 in a humidified CO2 and temperature-controlled incubator.
Agonist-promoted G-protein responses were determined by measuring changes in intracellular cAMP using the HTRF® cAMP HiRange kit (CisBio, Cat #: 62AM6PEJ) based on time-resolved fluorescence resonance energy transfer (TR-FRET) technology. […] Following a 30-minute incubation at 37° C. and 5% CO2 in a humidified CO2 and temperature-controlled incubator, the components of the cAMP HiRange kit were added as per the manufacturer's instructions. After an hour incubation at room temperature, plates were analyzed by a BMG PheraStar microplate reader.
These values are normalized to fingolimod, a known agonist of the sphingosine-1-phosphate 1 receptor.

Sequence of human sphingosine-1-phosphate receptor 1 (S1P1) (P21453 whole entry): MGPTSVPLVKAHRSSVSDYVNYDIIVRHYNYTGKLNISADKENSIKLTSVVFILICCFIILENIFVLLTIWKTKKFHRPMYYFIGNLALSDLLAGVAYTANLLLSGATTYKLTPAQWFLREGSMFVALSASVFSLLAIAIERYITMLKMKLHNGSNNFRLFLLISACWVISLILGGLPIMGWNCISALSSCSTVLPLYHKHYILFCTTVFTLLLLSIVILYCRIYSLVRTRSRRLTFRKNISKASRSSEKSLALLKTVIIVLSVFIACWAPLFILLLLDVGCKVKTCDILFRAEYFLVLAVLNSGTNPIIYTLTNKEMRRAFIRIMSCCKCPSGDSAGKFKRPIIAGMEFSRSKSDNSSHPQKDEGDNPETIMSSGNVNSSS

EC50, < 316 nM:
CC(C)n1nnc2cc(-c3c[nH]c(-c4ccccc4)c3)ccc21 [Compound 543, 5-(5-phenyl-1H-pyrrol-3-yl)-1-(propan-2-yl)-1H-1,2,3-benzotriazole]
COc1cc(NC(C)=O)ccc1-c1noc(-c2ccc3c(c2)nnn3C(C)C)n1 [Compound 532, N-(3-methoxy-4-{5-[1-(propan-2-yl)-1H-1,2,3-benzotriazol-5-yl]-1,2,4-oxadiazol-3-yl}phenyl)acetamide]

EC50, > 316 nM:
CC(C)(O)Cn1nnc2cc(-c3nc(-c4ccc5nc[nH]c5c4)no3)ccc21 [Compound 501, 1-{5-[3-(1H-1,3-benzo-diazol-6-yl)-1,2,4-oxadiazol-5-yl]-1H-1,2,3-benzotriazol-1-yl}-2-methylpropan-2-ol]
CC(C)(O)Cn1nnc2cc(-c3nc(-c4ccncc4C(F)(F)F)no3)ccc21 [Compound 460, 2-methyl-1-(5-{3-[3-(trifluoromethyl)pyridin-4-yl]-1,2,4-oxadiazol-5-yl}-1H-1,2,3-benzotriazol-1-yl)propan-2-ol]
CC(C)(O)Cn1nnc2cc(-c3nc(-c4cccc5cc[nH]c45)no3)ccc21 [Compound 577, 1-{5-[3-(1H-indol-7-yl)-1,2,4-oxadiazol-5-yl]-1H-1,2,3-benzotriazol-1-yl}-2-methylpropan-2-ol]
CNc1ccccc1-c1coc(-c2ccc3c(c2)nnn3C(C)C)n1 [Compound 587, N-methyl-2-{2-[1-(propan-2-yl)-1H-1,2,3-benzotriazol-5-yl]-1,3-oxazol-4-yl}aniline]

same assay, conditions: inhibition of cAMP production; potency; read-out: hS1P1 CAMP pEC50 (converted)

EC50, > 316 nM:
Cn1nnc2cc(-c3noc(-c4ccccc4Br)n3)ccc21 [Compound 73, 5-(2-bromophenyl)-3-(1-methyl-1H-benzo[d][1,2,3]triazol-5-yl)-1,2,4-oxadiazole]
CCC1(CC)CC(=O)c2cc(-c3nnc(-c4ccc5c(c4)nnn5C(C)C)o3)ccc2O1 [Compound 223, 2,2-diethyl-6-(5-(1-isopropyl-1H-benzo[d][1,2,3]triazol-5-yl)-1,3,4-oxadiazol-2-yl)chroman-4-one]
COCC1(COC)CC(=O)c2cc(-c3nc(-c4cccnc4)no3)ccc2O1 [Compound 186, 2,2-bis(methoxy-methyl)-6-[3-(pyridin-3-yl)-1,2,4-oxadiazol-5-yl]-3,4-dihydro-2H-1-benzopyran-4-one]
CC(C)n1nnc2cc(-c3noc(-c4ccc(C5CCCCC5)cc4)n3)ccc21 [Compound 290, 5-(4-cyclohexylphenyl)-3-(1-isopropyl-1H-benzo[d][1,2,3]triazol-5-yl)-1,2,4-oxadiazole]
CCC1(CC)CC(=O)c2cc(-c3nc(-c4ccc(Cl)cc4)no3)ccc2O1 [Compound 68, 6-[3-(4-chlorophenyl)-1,2,4-oxadiazol-5-yl]-2,2-diethyl-chroman-4-one]
Brc1ccccc1-c1noc(-c2ccc3[nH]nnc3c2)n1 [Compound 190, 5-[3-(2-bromophenyl)-1,2,4-oxadiazol-5-yl]-1H-1,2,3-benzotriazole]
Brc1ccccc1-c1nc(-c2ccc3c(c2)nnn3Cc2cccnc2)no1 [Compound 283, 5-(2-bromophenyl)-3-(1-(pyridin-3-ylmethyl)-1H-benzo[d][1,2,3]triazol-5-yl)-1,2,4-oxadiazole]
CC(C)Oc1ccccc1-c1noc(-c2ccc3c(ccn3C(C)C)c2)n1 [Compound 324, 3-(2-isopropoxyphenyl)-5-(1-isopropyl-1H-indol-5-yl)-1,2,4-oxadiazole]
COc1cccc(OC)c1-c1noc(-c2ccc3c(cnn3C(C)C)c2)n1 [Compound 335, 3-(2,6-dimethoxy-phenyl)-5-(1-isopropylindazol-5-yl)-1,2,4-oxadiazole]
Brc1ccccc1-c1noc(-c2ccc3c(c2)nnn3C2CCOCC2)n1 [Compound 233, 5-[3-(2-bromophenyl)-1,2,4-oxadiazol-5-yl]-1-(oxan-4-yl)-1H-1,2,3-benzotriazole]
CC(C)Oc1ccccc1-c1noc(-c2ccc3c(cnn3C(C)C)c2)n1 [Compound 334, 3-(2-isopropoxy-phenyl)-5-(1-isopropyl-1H-indazol-5-yl)-1,2,4-oxadiazole]
COc1ccc(-c2nc(-c3ccc4c(c3)nnn4C(C)C)no2)c(C)c1 [Compound 90, 3-(1-isopropyl-1H-benzo[d][1,2,3]triazol-5-yl)-5-(4-methoxy-2-methylphenyl)-1,2,4-oxadiazole]
CCC1(CC)CC(=O)c2cc(-c3nc(-c4ccnc(C(F)(F)F)c4)no3)ccc2O1 [Compound 314, 2,2-diethyl-6-(3-(2-(trifluoromethyl)pyridin-4-yl)-1,2,4-oxadiazol-5-yl)chroman-4-one]
O=C1CC2(CCCCC2)Oc2ccc(-c3nc(-c4ccncc4)no3)cc21 [Compound 280, 6-[3-(pyridin-4-yl)-1,2,4-oxadiazol-5-yl]-3,4-dihydrospiro[1-benzopyran-2,1′-cyclohexane]-4-one]
CC(C)n1nnc2cc(-c3noc(-c4ccc(F)cc4)n3)ccc21 [Compound 255, 5-(4-fluorophenyl)-3-(1-isopropyl-benzotriazol-5-yl)-1,2,4-oxadiazole]
CCC1(CC)CC(=O)c2cc(-c3nc(-c4ccccn4)no3)ccc2O1 [Compound 111, 2,2-diethyl-6-[3-(2-pyridyl)-1,2,4-oxadiazol-5-yl]chroman-4-one]
CC(C)CCn1nnc2cc(-c3nc(-c4ccccc4)no3)ccc21 [Compound 271, 1-(3-methylbutyl)-5-(3-phenyl-1,2,4-oxadiazol-5-yl)-1H-1,2,3-benzotriazole]
CCC1(CC)CC(=O)c2cc(-c3nc(-c4cnccc4OC)no3)ccc2O1 [Compound 303, 2,2-diethyl-6-(3-(4-methoxypyridin-3-yl)-1,2,4-oxadiazol-5-yl)chroman-4-one]
CCC1(CC)CC(=O)c2cc(-c3nc(-c4ccc(O)nc4)no3)ccc2O1 [Compound 105, 2,2-diethyl-6-[3-(6-hydroxy-3-pyridyl)-1,2,4-oxadiazol-5-yl]chroman-4-one]
CSc1ccc(-c2nc(-c3ccc4c(c3)nnn4C3CCCC3)no2)cc1 [Compound 237, 3-(1-cyclopentyl-1H-benzo[d][1,2,3]triazol-5-yl)-5-(4-(methyl-thio)phenyl)-1,2,4-oxadiazole]

EC50, < 316 nM:
N#Cc1cc(-c2nnc(-c3ccc4[nH]cnc4c3)o2)ccc1NCCF [Compound 358, 5-[5-(1H-1,3-benzo-diazol-5-yl)-1,3,4-oxadiazol-2-yl]-2-[(2-fluoroethyl)amino] benzonitrile]
CCC1(CC)CC(=O)c2cc(-c3nc(-c4ccnc(C)c4)no3)ccc2O1 [Compound 315, 2,2-diethyl-6-(3-(2-methylpyridin-4-yl)-1,2,4-oxadiazol-5-yl)chroman-4-one]
C=CCNc1ccc(-c2nc(-c3ccc4c(c3)CCC(=O)N4)no2)cc1C#N [Compound 61, 2-(allylamino)-5-(3-(2-oxo-1,2,3,4-tetrahydroquinolin-6-yl)-1,2,4-oxadiazol-5-yl)benzonitrile]
FC(F)Oc1ccc(-c2noc(-c3ccc4c(c3)nnn4C3CCCC3)n2)cc1 [Compound 80, 1-cyclopentyl-5-{3-[4-(difluoromethoxy)phenyl]-1,2,4-oxadiazol-5-yl}-1H-1,2,3-benzotriazole]
N#Cc1cc(-c2nc(-c3ccc4c(c3)CCC(=O)N4)no2)ccc1NCC(F)F [Compound 344, 2-[(2,2-difluoroethyl)amino]-5-[3-(2-oxo-1,2,3,4-tetrahydroquinolin-6-yl)-1,2,4-oxadiazol-5-yl]benzonitrile]
N#Cc1cc(-c2nc(-c3ccc4c(c3)CCC(=O)N4)no2)ccc1NCCF [Compound 343, 2-[(2-fluoroethyl)amino]-5-[3-(2-oxo-1,2,3,4-tetrahydroquinolin-6-yl)-1,2,4-oxadiazol-5-yl]benzonitrile]
CC1(C)CCC2(CC1)CC(=O)c1cc(-c3nc(-c4ccncc4)no3)ccc1O2 [Compound 254, 4′,4′-dimethyl-6-[3-(pyridin-4-yl)-1,2,4-oxadiazol-5-yl]-3,4-dihydrospiro[1-benzopyran-2,1′-cyclohexane]-4-one]
CC(C)Nc1ccc(-c2nc(-c3ccc4c(c3)CCC(=O)N4)no2)cc1C#N [Compound 259, 2-(isopropylamino)-5-(3-(2-oxo-1,2,3,4-tetrahydroquinolin-6-yl)-1,2,4-oxadiazol-5-yl)benzonitrile]
CC(F)(F)CNc1ccc(-c2nc(-c3ccc4c(c3)CCC(=O)N4)no2)cc1C#N [Compound 347, 2-[(2,2-difluoropropyl)amino]-5-[3-(2-oxo-1,2,3,4-tetrahydro-quinolin-6-yl)-1,2,4-oxadiazol-5-yl]benzonitrile]
COc1cccc(-c2cnc(-c3ccc4c(c3)nnn4C(C)C)s2)c1 [Compound 108, 2-(1-isopropyl-1H-benzo[d][1,2,3]triazol-5-yl)-5-(3-methoxy-phenyl)thiazole]
